Counter-ions that a name gives are not always drawn. Like-named read-outs stand apart in the source and are kept apart here.
Key:
[1] = system: CPV SD6 (New CPV-2a strain); assay: CPE-based antiviral inhibitor screening assay; type: cell-based, Canine parvovirus; details: for anti-CPV effect on F81 cells / Percentage CPE inhibition (mean ± s.d.): 10 μM; for anti-CPV effect on F81 cells: CPE-based screening assay; for Percentage CPE inhibition (mean ± s.d.): cells treated with drug 1 hour prior to virus infection, MOI 0.076, 40 h postinfection
[2] = 50% cytotoxicity concentration (CC50) assay; type: cell-based, Feline; details: cat
CPV [3] = assay: 50% antiviral efficacy concentration (EC50) assay, CPE-based; type: cell-based, Canine parvovirus; details: F81 cells pretreated 1 h, CPV MOI 0.076, 40 h
F81 cells [4] = assay: 50% cytotoxicity concentration (CC50) assay; type: cell-based, Feline
[5] = system: CPV variant BJ-1 (New CPV-2a strain); assay: Western blot of VP2 expression, variant BJ-1; type: cell-based, Canine parvovirus; details: 10 μM, BJ-1, 40 hpi, normalized to 0.1% DMSO-treated group
CPV [6] = assay: Immunofluorescence assay (IFA) for VP2 protein in infected F81 cells; type: cell-based, Canine parvovirus; details: about 30 hpi
CPV SD6 = assay: Absolute quantitative PCR of CPV VP2 gene copies in infected F81 cells; type: cell-based, Canine parvovirus; details: 10 μM, 1 mL whole cell lysates, 40 hpi
[7] = system: CPV variant SD3 (New CPV-2b strain); assay: Western blot of VP2 expression, variant SD3; type: cell-based, Canine parvovirus; details: 10 μM, SD3, 40 hpi, normalized to 0.1% DMSO-treated group
[8] = system: CPV variant SD6 (New CPV-2a strain); assay: Western blot of VP2 expression, variant SD6; type: cell-based, Canine parvovirus; details: 10 μM, SD6, 40 hpi, normalized to 0.1% DMSO-treated group
F81 cells [9] = assay: Caspase-Glo 3/7 assay in F81 cells with or without CPV infection; type: cell-based, Feline; details: 10 μM, with or without CPV infection, 4, 8, 12 and 24 hpi
CPV [10] = assay: Time of addition study (percentage CPE inhibition); type: cell-based, Canine parvovirus; details: 10 μM; for Percentage CPE inhibition (mean ± s.d.): drug added 1 hour post virus infection, 40 h postinfection
CPV enteritis = system: CPV enteritis; parameters: method as in earlier work; details: Oseltamivir-treated group; cited from earlier work
[11] = F81 cells, 40 h incubation, read-out: CC50

Q: With `Nc1ccn(C[C@@H](CO)OCP(=O)(O)O)c(=O)n1` [Cidofovir] as the molecule, how does the “anti-CPV effect on F81 cells” value [1] read?
A: The value was “no anti-CPV effects”.

Q: Which results are given for `Nc1nc(Cl)nc2c1ncn2[C@H]1C[C@H](O)[C@@H](CO)O1` [Cladribine]?
A: CC50 at 40 h ([2]; CC50): 40.2 µM; EC50 (CPV [3]; Canine parvovirus): 0.32 µM

Q: With `Cc1cc(C(C#N)c2ccc(Cl)cc2)c(Cl)cc1NC(=O)c1cc(I)cc(I)c1[O-].[Na+]` (stereo not drawn) [Closantel Sodium] as the molecule, how does the CC50 (F81 cells [4]) read?
A: The CC50 was 19.1 µM.

Q: And the “relative expression of VP2” value [5]?
A: The value was 12.83%.

Q: What about the “CPV infection by IFA (VP2 staining)” value (CPV [6]; 5 μM) of the same molecule?
A: Its value is “CPV infection could be inhibited”.

Q: And the “CPV infection by IFA (VP2 staining)” value (CPV [6]; 10 μM)?
A: Its value is “Few cells were CPV-positive”.

Q: And the “CPV infection by IFA (VP2 staining)” value (CPV [6]; 20 μM)?
A: The value was “Almost no green signals were detected”.

Q: What about the “CPV viral DNA copy numbers compared with the 0.1% DMSO-treated group” value (CPV SD6) of the same molecule?
A: The value was 24.04%.

Q: And the “Percentage CPE inhibition (mean ± s.d.)” value [1]?
A: The value was 69.76 ± 6.06%.

Q: What about the “relative expression of VP2” value [7] of the same molecule?
A: Its value is 23.85%.

Q: And the “relative expression of VP2” value [8]?
A: The value was 22.50%.

Q: And the “pro- or antiapoptotic effect (Caspase 3/7 activity)” value (F81 cells [9])?
A: The value was “no pro- or antiapoptotic effects”.

Q: And the EC50 (CPV [3])?
A: The EC50 was 6.01 µM.

Q: What about the “Percentage CPE inhibition (mean ± s.d.)” value (CPV [10]) of the same molecule?
A: The value was 58.14 ± 7.28%.

Q: Which CC50 at 40 h [2] does the source give for `Cc1cc(C(C#N)c2ccc(Cl)cc2)c(Cl)cc1NC(=O)c1cc(I)cc(I)c1O` (stereo not drawn) [Closantel] here?
A: Its CC50 at 40 h is 13.7 µM.

Q: What about the “relative expression of VP2” value [5] of the same molecule?
A: Its value is 14.58%.

Q: What about the “CPV infection by IFA (VP2 staining)” value (CPV [6]; 5 μM) of the same molecule?
A: The value was “CPV infection could be inhibited”.

Q: What about the “CPV infection by IFA (VP2 staining)” value (CPV [6]; 10 μM) of the same molecule?
A: Its value is “Few cells were CPV-positive”.

Q: And the “CPV infection by IFA (VP2 staining)” value (CPV [6]; 20 μM)?
A: The value was “Almost no green signals were detected”.

Q: What about the “CPV viral DNA copy numbers compared with the 0.1% DMSO-treated group” value (CPV SD6) of the same molecule?
A: The value was 20.83%.

Q: And the “relative expression of VP2” value [7]?
A: Its value is 10.78%.

Q: What about the “relative expression of VP2” value [8] of the same molecule?
A: Its value is 30.1%.

Q: What about the “pro- or antiapoptotic effect (Caspase 3/7 activity)” value (F81 cells [9]) of the same molecule?
A: The value was “no pro- or antiapoptotic effects”.

Q: And the EC50 (CPV [3]; Canine parvovirus)?
A: Its EC50 is 7.77 µM.

Q: For `Nc1ccn([C@@H]2O[C@H](CO)[C@@H](O)C2(F)F)c(=O)n1` [Gemcitabine HCl], which CC50 (F81 cells [4]; [11]) is on record?
A: Its CC50 is 142 µM.

Q: And the EC50 (CPV [3]; Canine parvovirus)?
A: The EC50 was 0.68 µM.

Q: With `Nc1ccn([C@@H]2O[C@H](CO)[C@@H](O)C2(F)F)c(=O)n1` [Gemcitabine] as the molecule, how does the CC50 (F81 cells [4]; [11]) read?
A: Its CC50 is 40 µM.

Q: And the EC50 (CPV [3])?
A: The EC50 was 0.62 µM.

Q: What about the “Percentage CPE inhibition (mean ± s.d.)” value (CPV [10]) of the same molecule?
A: Its value is 42.8 ± 6.13%.

Q: What does the source list for `CC(=O)Oc1ccccc1C(=O)Nc1ncc([N+](=O)[O-])s1` [Nitazoxanide]?
A: CC50 at 40 h [2, 11]: 21 µM; CPV infection by IFA (VP2 staining) (CPV [6]; 5 μM): CPV infection could be inhibited; CPV infection by IFA (VP2 staining) (CPV [6]; 10 μM): Few cells were CPV-positive; CPV infection by IFA (VP2 staining) (CPV [6]; 20 μM): Almost no green signals were detected; CPV viral DNA copy numbers compared with the 0.1% DMSO-treated group (CPV SD6): 0.07%; pro- or antiapoptotic effect (Caspase 3/7 activity) (F81 cells [9]): antiapoptotic effects were observed within 12 h; EC50 (CPV [3]; Canine parvovirus): 2.71 µM; anti-CPV activity by time of drug addition (CPV [10]; drug added 3 h postinfection): anti-CPV activity of Nitazoxanide was observed

Q: Which results are given for `CCOC(=O)C1=C[C@@H](OC(CC)CC)[C@H](NC(C)=O)[C@@H](N)C1` [Oseltamivir]?
A: anti-CPV effect on F81 cells [1]: no anti-CPV effects; inhibition at 10 µM ([1]; Canine parvovirus, read-out: Percentage CPE inhibition (mean ± s.d.)): 2.13 ± 2.41%; weight versus control group (CPV enteritis): significant increase of weight; white blood cell (WBC) count versus control group (CPV enteritis): no changes

Q: For `Nc1nc2[nH]cc(CCc3ccc(C(=O)N[C@@H](CCC(=O)[O-])C(=O)[O-])cc3)c2c(=O)[nH]1.Nc1nc2[nH]cc(CCc3ccc(C(=O)N[C@@H](CCC(=O)[O-])C(=O)[O-])cc3)c2c(=O)[nH]1.O.O.O.O.O.[Na+].[Na+].[Na+].[Na+]` [Pemetrexed Disodium Hydrate], which “Percentage CPE inhibition (mean ± s.d.)” value [1] is on record?
A: The value was 26.56 ± 2.12%.

Q: And the “Percentage CPE inhibition (mean ± s.d.)” value (CPV [10])?
A: Its value is 30.28 ± 5.74%.

Q: Which results are given for `CN1CCC(=C2c3ccccc3CCc3sccc32)CC1.O=C(O)CC(O)C(=O)O` [Pizotifen Malate]?
A: Percentage CPE inhibition (mean ± s.d.) [1]: 29.2 ± 2.72%; Percentage CPE inhibition (mean ± s.d.) (CPV [10]): 26.48 ± 2.91%

Q: Which CC50 at 40 h [2] does the source give for `O=c1[nH]c(=O)n([C@H]2C[C@H](O)[C@@H](CO)O2)cc1C(F)(F)F` [Trifluridine] here?
A: Its CC50 at 40 h is over 160 µM.

Q: What about the EC50 (CPV [3]; Canine parvovirus) of the same molecule?
A: Its EC50 is 9.35 µM.

Reference: article PMC6724046 (Viruses, 2019)
